Results taken from ChEMBL document CHEMBL5376002, “A Hybrid Antimicrobial Peptide Targeting Staphylococcus aureus with a Dual Function of Inhibiting Quorum Sensing Signaling and an Antibacterial Effect” (J Med Chem, 2023).
Calls of active or inactive are those of the source. No cut-off for these calls is given here.

Experiments:
[1] = tested on: Staphylococcus saprophyticus; assay: Antibacterial activity against Staphylococcus saprophyticus ATCC BAA-750 assessed as inhibition of bacterial growth incubated for 18 to 24 hrs; type: functional; conditions: time 18-24 hrs
[2] = tested on: Streptococcus pneumoniae; assay: Bactericidal activity against Streptococcus pneumoniae ATCC 49619 assessed as inhibition of bacterial growth incubated for 18 to 24 hrs; type: functional; conditions: time 18-24 hrs
[3] = tested on: Staphylococcus epidermidis; assay: Antibacterial activity against Staphylococcus epidermidis ATCC 12228 assessed as inhibition of bacterial growth incubated for 18 to 24 hrs; type: functional; conditions: time 18-24 hrs
[4] = tested on: Staphylococcus aureus; assay: Bactericidal activity against Staphylococcus aureus ATCC 43300 assessed as inhibition of bacterial growth incubated for 18 to 24 hrs; type: functional; conditions: time 18-24 hrs
[5] = tested on: Escherichia coli; assay: Bactericidal activity against Escherichia coli ATCC 25922 assessed as inhibition of bacterial growth incubated for 18 to 24 hrs; type: functional; conditions: time 18-24 hrs
[6] = tested on: Staphylococcus aureus; assay: Antibacterial activity against Staphylococcus aureus ATCC 6538p assessed as inhibition of bacterial growth incubated for 18 to 24 hrs; type: functional; conditions: time 18-24 hrs
[7] = tested on: Streptococcus mutans; assay: Bactericidal activity against Streptococcus mutans ATCC 25175 assessed as inhibition of bacterial growth incubated for 18 to 24 hrs; type: functional; conditions: time 18-24 hrs
[8] = tested on: Staphylococcus aureus; assay: Bactericidal activity against Staphylococcus aureus ATCC 12600 assessed as inhibition of bacterial growth incubated for 18 to 24 hrs; type: functional; conditions: time 18-24 hrs
[9] = tested on: Escherichia coli; assay: Antibacterial activity against Escherichia coli ATCC 25922 assessed as inhibition of bacterial growth incubated for 18 to 24 hrs; type: functional; conditions: time 18-24 hrs
[10] = tested on: RAW264.7; assay: Cytotoxicity against mouse RAW264.7 cells assessed as cell viability upto 125 uM incubated for 48 hrs by MTT assay; type: functional, cell-based
[11] = tested on: Streptococcus mutans; assay: Bactericidal activity against Streptococcus mutans UA159 assessed as inhibition of bacterial growth incubated for 18 to 24 hrs; type: functional; conditions: time 18-24 hrs
[12] = tested on: Staphylococcus aureus; assay: Bactericidal activity against Staphylococcus aureus ATCC 6538p assessed as inhibition of bacterial growth incubated for 18 to 24 hrs; type: functional; conditions: time 18-24 hrs
[13] = tested on: Staphylococcus saprophyticus; assay: Bactericidal activity against Staphylococcus saprophyticus ATCC BAA-750 assessed as inhibition of bacterial growth incubated for 18 to 24 hrs; type: functional; conditions: time 18-24 hrs
[14] = tested on: Staphylococcus epidermidis; assay: Bactericidal activity against Staphylococcus epidermidis ATCC 12228 assessed as inhibition of bacterial growth incubated for 18 to 24 hrs; type: functional; conditions: time 18-24 hrs
[15] = tested on: RAW264.7; assay: Cytotoxicity against mouse RAW264.7 cells assessed as cell viability incubated for 48 hrs by MTT assay; type: functional
[16] = tested on: Streptococcus pneumoniae; assay: Antibacterial activity against Streptococcus pneumoniae ATCC 49619 assessed as inhibition of bacterial growth incubated for 18 to 24 hrs; type: functional; conditions: time 18-24 hrs
[17] = tested on: Streptococcus mutans; assay: Antibacterial activity against Streptococcus mutans ATCC 25175 assessed as inhibition of bacterial growth incubated for 18 to 24 hrs; type: functional; conditions: time 18-24 hrs
[18] = tested on: Staphylococcus aureus; assay: Antibacterial activity against Staphylococcus aureus ATCC 12600 assessed as inhibition of bacterial growth incubated for 18 to 24 hrs; type: functional; conditions: time 18-24 hrs
[19] = tested on: Streptococcus mutans; assay: Antibacterial activity against Streptococcus mutans UA159 assessed as inhibition of bacterial growth incubated for 18 to 24 hrs; type: functional; conditions: time 18-24 hrs
[20] = tested on: Staphylococcus aureus; assay: Antibacterial activity against Staphylococcus aureus ATCC 43300 assessed as inhibition of bacterial growth incubated for 18 to 24 hrs; type: functional; conditions: time 18-24 hrs
[21] = tested on: Cell membrane; assay: Induction of cell membrane damage in Staphylococcus aureus ATCC 6538p assessed as increase in nucleic acid leakage measured up to 30 mins by UV-spectrophotometer analysis; type: subcellular
[22] = tested on: Staphylococcus aureus; assay: Inhibition of biofilm formation in Staphylococcus aureus incubated for 24 hrs by crystal violet staining based microscopic analysis; type: functional, organism-based
[23] = Binding affinity to AgrC-I extra-loop-I (unknown origin) assessed as dissociation constant incubated for 10 mins by isothermal titration calorimetry analysis
[24] = tested on: Erythrocyte; assay: Hemolytic activity in rat RBC assessed as hemolysis measured after 20 hrs; type: toxicity, cell-based
[25] = species on record: Homo sapiens; assay: Binding affinity to AgrC-I extra-loop-III (unknown origin) assessed as change in entropy incubated for 10 mins by isothermal titration calorimetry analysis
[26] = species on record: Homo sapiens; assay: Binding affinity to AgrC-I extra-loop-II (unknown origin) assessed as gibbs free energy change incubated for 10 mins by isothermal titration calorimetry analysis
[27] = tested on: Staphylococcus aureus; assay: Antivirulence activity against Staphylococcus aureus assessed as downregulation of psm-alpha expression level at 1 to 100 uM incubated for 24 hrs by qRT-PCR analysis; type: functional, organism-based; conditions: dose 1-100 µM
[28] = species on record: Homo sapiens; assay: Binding affinity to AgrC-I extra-loop-III (unknown origin) assessed as gibbs free energy change incubated for 10 mins by isothermal titration calorimetry analysis
[29] = Binding affinity to AgrC-I extra-loop-III (unknown origin) assessed as dissociation constant incubated for 10 mins by isothermal titration calorimetry analysis
[30] = Binding affinity to AgrC-I extra-loop-II (unknown origin) assessed as change in enthalpy incubated for 10 mins by isothermal titration calorimetry analysis
[31] = Binding affinity to AgrC-I extra-loop-III (unknown origin) assessed as change in enthalpy incubated for 10 mins by isothermal titration calorimetry analysis
[32] = tested on: Staphylococcus aureus; assay: Antivirulence activity against Staphylococcus aureus assessed as downregulation of hla expression level at 1 to 100 uM incubated for 24 hrs by qRT-PCR analysis; type: functional, organism-based; conditions: dose 1-100 µM
[33] = tested on: Cell membrane; assay: Induction of cell membrane damage in Staphylococcus aureus ATCC 6538p assessed as increase in fluorescent intensity incubated for 30 mins by PI staining based flow cytometry assay
[34] = Binding affinity to AgrC-I extra-loop-II (unknown origin) assessed as dissociation constant incubated for 10 mins by isothermal titration calorimetry analysis
[35] = species on record: Homo sapiens; assay: Binding affinity to AgrC-I extra-loop-I (unknown origin) assessed as gibbs free energy change incubated for 10 mins by isothermal titration calorimetry analysis
[36] = species on record: Homo sapiens; assay: Binding affinity to AgrC-I extra-loop-II (unknown origin) assessed as change in entropy incubated for 10 mins by isothermal titration calorimetry analysis
[37] = tested on: Staphylococcus aureus; assay: Antivirulence activity against Staphylococcus aureus assessed as downregulation of RNAIII expression level at 1 to 100 uM incubated for 24 hrs by qRT-PCR analysis; type: functional, organism-based; conditions: dose 1-100 µM
[38] = Binding affinity to AgrC-I extra-loop-I (unknown origin) assessed as change in enthalpy incubated for 10 mins by isothermal titration calorimetry analysis
[39] = species on record: Homo sapiens; assay: Binding affinity to AgrC-I extra-loop-I (unknown origin) assessed as change in entropy incubated for 10 mins by isothermal titration calorimetry analysis
[40] = tested on: Staphylococcus aureus; assay: Inhibition of biofilm formation in Staphylococcus aureus at 0.78 to 1.56 uM incubated for 24 hrs by crystal violet staining based analysis; type: functional, organism-based; conditions: dose 0.78-1.56 µM

Substance	MIC [1] [µM]	MBC [2] [µM]	MIC [3] [µM]	MBC [4] [µM]	MBC [5] [µM]	MIC [6] [µM]	MBC [7] [µM]	MBC [8] [µM]	MIC [9] [µM]	Activity [10]	MBC [11] [µM]	MBC [12] [µM]	MBC [13] [µM]	MBC [14] [µM]	CC50 [15] [nM]	MIC [16] [µM]	MIC [17] [µM]	MIC [18] [µM]	MIC [19] [µM]	MIC [20] [µM]	other results
H-IKNAWKAMIKAWY-OH	6.25	12.5	3.13	12.5	6.25	6.25	12.5	6.25	6.25	inactive	25	6.25	12.5	3.13	> 125000	12.5	6.25	6.25	6.25	6.25	
H-IKNLWKKMIKLWY-OH	3.13	12.5	1.56	6.25	3.13	3.13	12.5	6.25	3.13	inactive	12.5	3.13	6.25	3.13	> 125000	6.25	3.13	3.13	6.25	6.25	Activity [21]: Active; inhibition [22]: Active; Kd [23]: 0.001 nM; Activity [24]: Non-Toxic; -TdeltaS [25]: -15.6 kcal/mol; deltaG [26]: -16.4 kcal/mol; Activity [27]: inactive; deltaG [28]: -16.4 kcal/mol; Kd [29]: 0.001 nM; deltaH [30]: -44.2 kcal/mol; deltaH [31]: -0.775 kcal/mol; Activity [32]: inactive; Activity [33]: Active; Kd [34]: 0.001 nM; deltaG [35]: -16.4 kcal/mol; -TdeltaS [36]: 27.9 kcal/mol; Activity [37]: inactive; deltaH [38]: inactive; -TdeltaS [39]: -16.3 kcal/mol
H-LGAKAGGGIKNLWKKMIKLWY-OH	3.13	25	1.56	6.25	12.5	3.13	3.13	3.13	6.25		6.25	3.13	6.25	3.13		6.25	3.13	3.13	6.25	6.25	Activity [24]: Non-Toxic; Activity [27]: inactive; Activity [32]: inactive; Activity [37]: inactive; inhibition [40]: Active
